Source: patent publication US3998963A, “Tertiary butyl substituted carbamoyl oxime pesticides” (priority 1975, dated 1976)
≈ marks a conversion by molar mass, not a printed value. Where two headings read alike, the source gives them in different places.

Experiments:
Format in all cases: in vivo
[1] = tested on: southern armyworm (Spodoptera eridania, (Cram.)); assay: Southern Armyworm Leaf Spray Bait Test; conditions: for LC50: Spodoptera eridania, 72 h, leaf spray bait, 3 days, read-out: Insect LD50, Armyworm; for (b) relative efficacy of derivative vs parent compound, Armyworm: bait, formula of footnote b is drawing 8
Experimental: (§1) Suspensions of the test compouns were prepared by dissolving one gram of compound in 50 milliliters of acetone in which had been dissolved 0.1 gram (10 percent of the weight of compound) of an alkylphenoxy polyethoxyethanol surfactant, as an emulsifying or dispersing agent. The resulting solution was mixed into 150 milliliters of water to give roughly 200 milliliters of a suspension containing the compound in finely divided form. The thus-prepared stock suspension contained 0.5 percent by weight of compound. The test concentrations in parts per million by weight employed in the tests described hereinbelow were obtained by appropriate dilutions of the stock suspension with water. The test procedures were as follows:
Southern Armyworm Leaf Spray Bait Test
Larvae of the southern armyworm (Spodoptera eridania, (Cram.)), reared on Tendergreen bean plants at a temperature of 80°±5° F. and a relative humidity of 50±5 per cent, constituted the test insects.
The test compounds were formulated by diluting the stock suspension with water to give a suspension containing 500 parts of test compound per million parts of final formulation. Potted Tendergreen bean plants of standard height and age were placed on a revolving turntable and sprayed with 100-110 milliliters of test compound formulation by use of a DeVilbiss spray gun set at 10 psig air pressure. This application, which lasted 25 seconds, was sufficient to wet plants to run-off. As a control, 100-110 milliliters of a water-acetone-emulsifier solution containing no test compound were also sprayed on infested plants. When dry, the paired leaves were separated and each one was placed in a 9 centimeter Petri dish lined with moistened filter paper. Five randomly selected larvae were introduced into each dish and the dishes were closed. The closed dishes were labeled and held at 80°-85° F. for 3 days. Although the larvae could easily consume the whole leaf within 24 hours, no more food was added. Larvae which were unable to move the length of the body, even upon stimulation by prodding, were considered dead. Per cent mortality was recorded for various concentration levels.
(§2) In Table 1 are presented insect and rat toxicity data (bait tests) on a comparative basis of the compounds described above. […] Rat toxicity is also more meaningfully compared on the basis of molar weight LD50 values. The relative efficacy of the parent compounds as compared to the previously known derivatives and as compared to the new compounds of this invention is also shown in Table 1. The ratio of efficacy as contact poisons (immersion/bait) of the compounds tested against Armyworm and House Fly is presented in Table 2 along with the results of the phytotoxicity tests of the compounds on bean, corn, tomato and cotton.

[2] = tested on: cotton; assay: Phytotoxicity Test, cotton; conditions: for Phytotoxicity, Cotton: 2500 parts per million, ten days; for phytotoxicity to cotton (in words): text statement
Experimental: as §1
Experiments were also conducted to determine the phytotoxicity of representative compositions with respect to healthy fresh plants. Solutions of the compounds were prepared as described above to provide a concentration of 2500 parts per million of the test compound. The test plants were sprayed in accordance with the procedure described above for the Mite Foliage Spray Test so as to deliver approximately 100 milliliters of test solution to the leaves of each plant tested. The sprayed plants and controls were set aside for approximately one hour to allow the foliage to dry and were then placed in the greenhouse. After ten days the plants were visually inspected to determine the extent of foliage injury. A rating of 1 indicates no perceptible injury; 5 indicates the plant was dead and ratings of 2, 3 and 4 indicate intermediate degrees of injury based upon the number and extent to which leaves were injured.

[3] = tested on: Mexican bean beetle (Epilachna varivestis, Muls.); assay: Mexican Bean Beetle Leaf Spray Test; conditions: 72 h, 3 days, read-out: Insect LD50, Beetle
Experimental: as §1
Mexican Bean Beetle Leaf Spray Test
Fourth instar lavae of the Mexican bean beetle (Epilachna varivestis, Muls.), reared on Tendergreen bean plants at a temperature of 80°±5° F. and 50±5 per cent relative humidity, were the test insects.
The test compounds were formulated by diluting the stock suspension with water to give a suspension containing 500 parts of test compound per million parts of final formulation. Potted Tendergreen bean plants of standard height and age were placed on a revolving turntable and sprayed with 100-110 milliliters of test comound formulation by use of a DeVilbiss spray gun set at 10 psig air pressure. This application, which lasted 25 seconds, was sufficient to wet plants to run-off. As a control, 100-110 milliliters of a water-acetone-emulsifier solution containing no test compound were also sprayed on infested plants. When dry, the paired leaves were separated and each was placed in a 9 centimeter Petri dish lined with moistened filter paper. Five randomly selected larvae were introduced into each dish, and the dishes were closed. The closed dishes were labeled and held at a temperature of 80°±5° F, for 3 days. Although the larvae could easily consume the leaf within 24 to 48 hours, no more food was added. Larvae which were unable to move the length of the body, even upon stimulation, were considered dead.

[4] = Mammalian Toxicity (peroral, rat); conditions: rat, in vivo, po, peroral
Experimental: (§3) These compositions were also evaluated to determine their peroral toxicity to mammals by conventional methods. The animal selected for this experiment was the rat. The test results obtained are expressed in terms of the number of milligrams of composition per kilogram of weight of the animal required to achieve a mortality rate of 50 percent (LD50).
as §2

[5] = tested on: two-spotted mite (Tetranychus urticae Koch); assay: Mite Foliage Spray Test; conditions: foliar, 144 h, 6 days, read-out: Insect LD50, Mite
Experimental: as §1
Adults and nymphal stage of the two-spotted mite (Tetranychus urticae Koch), reared on Tendergreen bean plants at 80±5 per cent relative humidity, were the test organisms. Infested leaves from a stock culture were placed on the primary leaves of two bean plants 6 to 8 inches in height, growing in a 21/2 inch clay pot. 150-200 Mites, a sufficient number for testing, transferred from the excised leaves to the fresh plants in a period of twenty four hours. Following the twenty four hour transfer period, the excised leaves were removed from the infested plants. The test compounds were formulated by diluting the stock suspension with water to give a suspension containing 500 parts of test compound per million parts of final formulation. The potted plants (one pot per compound) were placed on a revolving turntable and sprayed with 100-110 milliliters of test compound formulation by use of a DeVilbiss spray gun set at 40 psig. air pressure. This application, which lasted 25 seconds, was sufficient to wet the plants to run-off. As a control, 100-110 milliliters of a water solution containing acetone and emulsifier in the same concentrations as the test compound formulation, but containing no test compound, were also sprayed on infested plants. The sprayed plants were held at 80±5 per cent relative humidity for 6 days, after which a mortality count of motile forms was made. Microscopic examination for motile forms was made on the leaves of the test plants. Any individual which was capable of locomotion upon prodding was considered living.

[6] = tested on: rat; assay: Mammalian Toxicity (peroral, rat); conditions: for (b) relative value of derivative vs parent compound, Rat LD50: peroral, formula of footnote b is drawing 8; for mammalian toxicity (in words): text statement
Experimental: as §3, §2

[7] = Table II, read-out: Rat Tox. LD50
[8] = molar weight LD50, Table I, read-out: Rat LD50/mole wt. [a]

Structure (SMILES)	LC50 [1] [µg/mL]	Phytotoxicity, Cotton [2]	phytotoxicity to cotton (in words) [2]	LC50 [3] [µg/mL]	LD50 ([4]; Table I, read-out: Rat LD50) [mg/kg]	LD50 [4, 7] [mg/kg]	LD50 ([4]; read-out: rat LD50 (molar)) [µmol/kg]	LC50 [5] [µg/mL]	LD50 [4, 8] [µmol/kg]	(b) relative efficacy of derivative vs parent compound, Armyworm [1]	(b) relative value of derivative vs parent compound, Rat LD50 [6]	more toxic to mammals than the parent compound ([6]; molar LD50 comparison, vs compound 1)	mammalian toxicity (in words) [6]	safety relative to the parent (molar) ([6]; vs parent compound, molar basis)	less toxic to mammals than its parent compound, weight basis ([6]; vs parent compound, weight basis)	mammalian toxicity (in words) ([6]; listed as O-[ N-methyl-N-[4-(t-butylphenyl) sulfenyl] carbamoyl] S-isopropyl thiolacetohyd)
CNC(=O)ON=C(C)SC [Compound 1, O-(methylcarbamoyl) S-methyl acetothiolhydroximate]	11 (≈ 67.8 µM)	*Bu 3	so great as to significantly curtail the use of this otherwise highly desirable pesticide on cotton	70 (≈ 432 µM)	48.5	48.5	330	500 (≈ 3080 µM)								
CNC(=O)ON=C(C)SC(C)C [Compound 2]	17 (≈ 89.3 µM)	Bu 2		30 (≈ 158 µM)	7.7	7.7		450 (≈ 2370 µM)	40							
CCSC(C)=NOC(=O)NC [Compound 3]	11 (≈ 62.4 µM)	2		38 (≈ 216 µM)		17.7		250 (≈ 1420 µM)								
CSC(C)=NOC(=O)N(C)Sc1ccc(Cl)cc1 [Compound 4]	10 (≈ 32.8 µM)	*Bu 3		70 (≈ 230 µM)	65	65		500 (≈ 1640 µM)	210	2.1	1.43					
CC(=NOC(=O)N(C)Sc1ccc(Cl)cc1)SC(C)C [Compound 5]	30 (≈ 90.1 µM)	Bu 2		50 (≈ 150 µM)	16.2	16.2		58 (≈ 174 µM)	48	1.0	0.83					
CSC(C)=NOC(=O)N(C)Sc1ccc(C)cc1 [Compound 6]	6 (≈ 21.1 µM)	Bu 2		15 (≈ 52.7 µM)	56.6	56.6	200	95 (≈ 334 µM)		3.2	1.5	at least 50%				
CC(=NOC(=O)N(C)Sc1ccc(C)cc1)SC(C)C [Compound 7]	12 (≈ 38.4 µM)			15 (≈ 48 µM)	18.7	16.2		42 (≈ 134 µM)	60	2.3	0.67					
CSC(C)=NOC(=O)N(C)Sc1ccc(C(C)(C)C)cc1 [Compound 8, O-[N-Methyl-N-[4-(t-butylphenyl)sulfenyl]carbamoyl] S-Methyl Acetothiolhydroximate]	4 (≈ 12.3 µM)	Bu 2	moderate leaf burn injury	20 (≈ 61.3 µM)	196	196	600	380 (≈ 1160 µM)		5.7	0.5		extremely low mammalian toxicity	about twice as safe as the parent	at least 4 times	
CC(=NOC(=O)N(C)Sc1ccc(C(C)(C)C)cc1)SC(C)C [Compound 9, O-[N-Methyl-N-[4-(t-Butylphenyl)sulfenyl]carbamoyl] S-Isopropyl Thiolacetohydroximate]	19 (≈ 53.6 µM)			30 (≈ 84.6 µM)	71.3	71.3		42 (≈ 118 µM)	200	1.6	0.2		substantial reduction in mammalian toxicity			very low level of mammalian toxicity
